{"source": "EPA's ToxValDB 9.5 (doi:10.2903/j.efsa.2013.3269)", "key": {"[1]": {"system": "Typhlodromus pyri", "experiment": "LR50; higher = less toxic", "conditions": "acute; duration: 7 days; mortality"}, "[2]": {"system": "Aphidius rhopalosiphi", "experiment": "LR50; higher = less toxic", "conditions": "acute; duration: 48 hours; mortality"}, "[3]": {"system": "Tagia sp.", "conditions": "acute; duration: 14 days; mortality"}, "[4]": {"system": "Oncorhynchus mykiss", "conditions": "acute; duration: 96 hours; mortality"}, "[5]": {"system": "Anas platyrhynchos", "conditions": "oral, mortality"}, "[6]": {"system": "Rattus norvegicus"}, "[7]": {"system": "Colinus virginianus", "conditions": "acute; oral; diet; mortality"}, "[8]": {"system": "Oryctolagus sp.", "conditions": "developmental; development"}, "[9]": {"system": "Apis mellifera", "conditions": "acute, duration: 48 hours, mortality"}}, "note": "Values joined by “and” are separate entries in the source; they are usually repeats but may differ in a detail not shown here. Equal entries are not always repeated."}
{"smiles": "CCc1cc(C)cc(CC)c1-c1c(OC(=O)C(C)(C)C)n2n(c1=O)CCOCC2", "note": "[Pinoxaden]", "values": [{"measurement": "LR50", "setting": "[1]", "value": 1.81, "unit": "g/ha"}, {"measurement": "LR50", "setting": "[2]", "value": 6.22, "unit": "g/ha"}, {"measurement": "LC50", "setting": "[3]", "value": "> 1000", "unit": "mg/kg"}, {"measurement": "LC50", "setting": "[4]", "value": 10.3, "unit": "µg/mL"}, {"measurement": "LD50", "setting": "[5]; acute, unspecified", "value": "> 2250", "unit": "mg/kg-day"}, {"measurement": "LC50", "setting": "[5]; short-term, feed", "value": "> 1800", "unit": "mg/kg-day"}, {"measurement": "LD50", "setting": "[6]; acute, oral, mortality", "value": "> 5000", "unit": "mg/kg-day"}, {"measurement": "NOAEL", "setting": "[6]; chronic, duration: 2 years, histopathology: nonneoplastic", "value": 10, "unit": "mg/kg-day"}, {"measurement": "NOAEL", "setting": "[6]; reproduction developmental, body weight", "value": 250, "unit": "mg/kg-day"}, {"measurement": "NOAEL", "setting": "[6]; reproduction developmental, oral, gavage, no effects", "value": 500, "unit": "mg/kg-day"}, {"measurement": "LC50", "setting": "[7]", "value": "> 1570", "unit": "mg/kg-day"}, {"measurement": "NOAEL", "setting": "[8]", "value": "30 mg/kg-day and 10 mg/kg-day"}, {"measurement": "LD50", "setting": "[9]; dermal", "value": "> 100", "unit": "µg/piece"}, {"measurement": "LD50", "setting": "[9]; oral, unspecified", "value": "> 200", "unit": "µg/piece"}]}
